pIC50: −log10 of the molar value. Values joined by “and” are separate entries in the source; they are usually repeats but may differ in a detail not shown here. Equal values may be shown once. Where a name gives a salt, the structure may show the parent alone.
tested on: mouse bone-marrow derived macrophages; assay: not given; conditions: Mus musculus, BMDM, 30 h, read-out: mCSF driven proliferation BMDM (Mouse) - IC-50 (μM), BrDU incorporation, CSF-1 stimulated, 30 hrs culture

Row | SMILES | IC50 [µM]
1 | O=C(Nc1ccc(CCN2CCOCC2)cc1C1=CCCCC1)c1ncc(Cl)[nH]1 [Example 41, 5-Chloro-1H-imidazole-2-carboxylic acid [2-cyclohex-1-enyl-4-(2-morpholin-4-yl-ethyl)-phenyl]-amide hydrochloride] | 0.321
2 | N#Cc1cnc(C(=O)Nc2ccc(CN3CCOCC3)cc2C2=CCCCC2)[nH]1 [Example 44, 5-Cyano-1H-imidazole-2-carboxylic acid (2-cyclohex-1-enyl-4-morpholin-4-ylmethyl-phenyl)-amide hydrochloride] | 0.0164
3 | CC1(C)CC=C(c2cc(CC(=O)NCCCO)ccc2NC(=O)c2ncc(C#N)[nH]2)CC1 [Example 54, 5-Cyano-1H-imidazole-2-carboxylic acid {2-(4,4-dimethyl-cyclohex-1-enyl)-4-[(3-hydroxy-propylcarbamoyl)-methyl]-phenyl}-amide] | > 0.1
4 | CC1(C)CC=C(c2cc(C(C)(C)N3CCN(CC(=O)O)CC3)ccc2NC(=O)c2nc(C#N)c[nH]2)CC1 [Example 64, (4-{1-[4-[(4-Cyano-1H-imidazole-2-carbonyl)-amino]-3-(4,4-dimethyl-cyclohex-1-enyl)-phenyl]-1-methyl-ethyl}-piperazin-1-yl)-acetic acid, sodium salt] | 0.2
5 | CC1(C)CC=C(c2cc(C(C)(C)NCCO)ccc2NC(=O)c2nc(C#N)c[nH]2)CC1 [Example 65, 4-Cyano-1H-imidazole-2-carboxylic acid {2-(4,4-dimethyl-cyclohex-1-enyl)-4-[1-(2-hydroxy-ethylamino)-1-methyl-ethyl]-phenyl}-amide hydrochloride] | 0.0081
6 | CC1(C)CC=C(c2cc(C(C)(C)CN3C[C@@H]4OC(C)(C)O[C@@H]4C3)ccc2NC(=O)c2nc(C#N)c[nH]2)CC1 [Example 140, 4-Cyano-1H-imidazole-2-carboxylic acid {2-(4,4-dimethyl-cyclohex-1-enyl)-4-[2-(2,2-dimethyl-tetrahydro-[1,3]dioxolo[4,5-c]pyrrol-5-yl)-1,1-dimethyl-ethyl]-phenyl}-amide] | 0.031

same assay, conditions: read-out: mCSF driven proliferation BMDM (Mouse) - IC-50; BrDU incorporation, CSF-1 stimulated, 30 hrs culture

Row | SMILES | pIC50
7 | COCCNC(C)(C)c1ccc(NC(=O)c2nc(C#N)c[nH]2)c(C2=CCC(C)(C)CC2)c1 [Example 20, 4-Cyano-1H-imidazole-2-carboxy-lic acid{2-(4,4-di-methyl-cyclo-hex-1-enyl)-4-[1-(2-meth-oxy-ethyl-amino)-1-methyl-ethyl]-phenyl}-amide] | 8.33 and 8.32
8 | CN1CCN(C(C)(C)c2ccc(NC(=O)c3nc(C#N)c[nH]3)c(C3=CCC(C)(C)CC3)c2)CC1 [Example 23, 4-Cyano-1H-imidazole-2-carboxy-lic acid{2-(4,4-di-methyl-cyclohex-1-enyl)-4-[1-meth-yl-1-(4-methyl-piperazin-1-yl)-ethyl]-phe-nyl}-amide] | 8.48
9 | N#Cc1c[nH]c(C(=O)Nc2ccc(CCS(=O)(=O)N3CCOCC3)cc2C2=CCCCC2)n1 [Example 26, 4-Cyano-1H-imidazole-2-carboxylic acid {2-cyclohex-1-enyl-4-[2-(morpholine-4-sulfonyl)-ethyl]-phenyl}-amide] | 8.23

same assay, conditions: read-out: mCSF driven proliferation BMDM (Mouse) - IC-50; BrDU incorporation, CSF-1 stimulated, 30 hrs culture; hydrochloride

Row | SMILES | pIC50
10 | N#Cc1cnc(C(=O)Nc2ccc(CN3CCOCC3)cc2C2=CCCCC2)[nH]1 [Example 44, 5-Cyano-1H-imidazole-2-carboxylic acid (2-cyclohex-1-enyl-4-morpholin-4-ylmethyl-phenyl)-amide hydrochloride] | 7.84

molecular target: CSF-1R (c-fms) (Homo sapiens (Human), UniProt P07333); assay: Fluorescence polarization competition immunoassay (1 nM c-fms; peptide Pi assay); type: biochemical; conditions: read-out: 1 nM c-fms; peptide Pi assay - IC-50
Sequence (P07333 20-972): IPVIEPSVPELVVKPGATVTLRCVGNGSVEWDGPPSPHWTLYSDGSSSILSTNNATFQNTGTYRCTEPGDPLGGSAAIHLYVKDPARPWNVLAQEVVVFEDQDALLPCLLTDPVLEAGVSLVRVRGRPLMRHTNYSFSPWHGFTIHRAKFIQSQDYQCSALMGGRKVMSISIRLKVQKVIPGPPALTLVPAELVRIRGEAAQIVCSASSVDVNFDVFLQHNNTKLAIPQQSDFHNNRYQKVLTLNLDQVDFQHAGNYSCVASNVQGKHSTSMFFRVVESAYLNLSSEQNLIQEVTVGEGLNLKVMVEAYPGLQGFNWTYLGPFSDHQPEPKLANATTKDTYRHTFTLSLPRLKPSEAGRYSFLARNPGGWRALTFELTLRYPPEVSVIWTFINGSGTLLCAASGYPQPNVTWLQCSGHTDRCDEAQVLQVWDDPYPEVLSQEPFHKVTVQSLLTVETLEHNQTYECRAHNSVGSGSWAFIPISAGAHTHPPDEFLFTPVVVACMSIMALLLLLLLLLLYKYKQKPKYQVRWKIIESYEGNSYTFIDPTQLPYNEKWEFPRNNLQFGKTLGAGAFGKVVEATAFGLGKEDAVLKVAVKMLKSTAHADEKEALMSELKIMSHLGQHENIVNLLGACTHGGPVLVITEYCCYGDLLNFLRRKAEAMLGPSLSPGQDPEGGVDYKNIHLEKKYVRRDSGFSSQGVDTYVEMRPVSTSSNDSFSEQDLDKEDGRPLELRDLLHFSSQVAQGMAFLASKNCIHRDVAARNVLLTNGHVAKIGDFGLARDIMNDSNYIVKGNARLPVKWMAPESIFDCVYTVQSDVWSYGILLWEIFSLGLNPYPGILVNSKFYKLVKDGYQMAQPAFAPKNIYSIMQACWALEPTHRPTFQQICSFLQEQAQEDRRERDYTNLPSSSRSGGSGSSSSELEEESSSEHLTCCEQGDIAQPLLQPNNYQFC
Procedure: Fluorescence Polarization Competition Immunoassay
The kinase reaction was initiated by adding 1 μL of 10 mM ATP in assay buffer. […] Positive and negative control wells were included on each plate, where 4% DMSO in assay buffer was substituted for the compound; in addition, positive control wells received 1.2 μL of 50 mM EDTA (ethylenediaminetetraacetic acid) before the start of the reaction.
The plates were covered, incubated for 30 min at room temperature, and the fluorescence polarization was read on an Analyst plate reader (Molecular Devices). […] Reported IC50 values are the mean of three of at least three determinations.

Row | SMILES | pIC50
11 | Cc1nc(C(=O)Nc2ccc(CCN3CCOCC3)cc2C2=CCCCC2)[nH]c1C#N [Example 33, 5-Cyano-4-methyl-1H-imidazole-2-carboxylic acid [2-cyclohex-1-enyl-4-(2-morpholin-4-yl-ethyl)-phenyl]-amide hydrochloride] | < 7.22
12 | C[S+]([O-])c1ncc(C(=O)Nc2ccc(CCN3CCOCC3)cc2C2=CCCCC2)[nH]1 (centres unmarked) [Example 35, 2-Methanesulfinyl-3H-imidazole-4-carboxylic acid [2-cyclohex-1-enyl-4-(2-morpholin-4-yl-ethyl)-phenyl]-amide trifluoroacetic acid salt] | < 6.30
13 | CS(=O)(=O)c1ncc(C(=O)Nc2ccc(CCN3CCOCC3)cc2C2=CCCCC2)[nH]1 [Example 36, 2-Methanesulfonyl-3H-imidazole-4-carboxylic acid [2-cyclohex-1-enyl-4-(2-morpholin-4-yl-ethyl)-phenyl]-amide hydrochloride] | < 6.30
14 | O=C(Nc1ccc(CCN2CCOCC2)cc1C1=CCCCC1)c1nc(Cl)c(Cl)[nH]1 [Example 38, 4,5-Dichloro-1H-imidazole-2-carboxylic acid [2-cyclohex-1-enyl-4-(2-morpholin-4-yl-ethyl)-phenyl]-amide trifluoroacetic acid salt] | < 7.22
15 | O=C(Nc1ccc(CCN2CCOCC2)cc1C1=CCCCC1)c1nc2ccccc2[nH]1 [Example 39, 1H-Benzoimidazole-2-carboxylic acid [2-cyclohex-1-enyl-4-(2-morpholin-4-yl-ethyl)-phenyl]-amide trifluoroacetic acid salt] | < 7.22
16 | CC1(C)CC=C(c2cc(C(C)(C)CN3C[C@@H]4OC(C)(C)O[C@@H]4C3)ccc2NC(=O)c2nc(C#N)c[nH]2)CC1 [Example 140, 4-Cyano-1H-imidazole-2-carboxylic acid {2-(4,4-dimethyl-cyclohex-1-enyl)-4-[2-(2,2-dimethyl-tetrahydro-[1,3]dioxolo[4,5-c]pyrrol-5-yl)-1,1-dimethyl-ethyl]-phenyl}-amide] | < 7.00

molecular target: c-fms (Homo sapiens (Human), UniProt P07333); assay: 10 nM c-fms auto-Pi assay; type: biochemical; conditions: cell printed as 0.05@0.002–2; read-out: 10 nM c-fms auto-Pi assay - IC-50
Sequence (P07333 20-972): as above

Row | SMILES | pIC50
17 | CCN(C)CCCc1ccc(NC(=O)c2ccc(C#N)o2)c(N2CCC(C)CC2)c1 [Example 55, 5-Cyano-furan-2-carboxylic acid [4-[3-(ethyl-methyl-amino)-propyl]-2-(4-methyl-piperidin-1-yl)-phenyl]-amide] | 7.30

Source: patent US8674100B2, “Inhibitors of C-FMS kinase” (Janssen Pharmaceutica, N.V., priority 2006, dated 2014)
